Series [1] has as its system bladder cancer tumour cells of TCC97-7 type carrying the Ser249Cys mutation of FGF receptor 3. Kind of series: Inhibition of serum-induced proliferation of TCC97-7 bladder cancer cells (cell-covered surface area, Incucyte). The class given is cell-based. Particulars: 72 h, TCC97-7 cell line in the presence of serum, after 3 days. On the procedure:
Evaluation of the Capacity of the FGF-R Antagonists to Inhibit Serum-Induced Proliferation of Bladder Cancer Tumour Cells of TCC97-7 Type Carrying the Ser249Cys Mutation of FGF Receptor 3
To do this, 2000 cells are seeded in the morning in 50 μl of complete medium (Ham-F/12, 1% FCS, 2 mM glutamine, non-essential amino acids, sodium pyruvate, 1% insulin/transferrin/selenium, hydrocortisone). In the evening, 50 μl of the various compounds are added at 2 or 20 μM after dilution in complete culture medium in order to obtain final concentrations of 1 or 10 μM. After 3 days, cell proliferation is evaluated by measuring the cell-covered surface area of a well of a 96 well plate. This surface area is measured using an Incucyte apparatus (Essen BioScience). The percentage inhibition of the cell proliferation is calculated by considering the surface area occupied by the TCC97-7 cells cultured in the absence of FGF-R antagonists to be 0% inhibition. 100% inhibition would correspond to a well no longer containing cells.
Thus, compounds 1 to 24 are capable of inhibiting TCC97-7 cell proliferation by more than 20% at the dose of 1 or 10 μM. (Table No. 2).

In series [2] the test system is TCC97-7 bladder cancer cells carrying the Ser249Cys mutation of FGF-R3. Kind of series: Reduction of intracellular ATP content of TCC97-7 cells in serum-supplemented medium (Cell Titer-Glo). The series is classed as cell-based. Particulars: 72 h, TCC97-7 cells cultured in the presence of serum, after 3 days, read-out: Inhibition of the amount of intracellular ATP (%). On the procedure:
Evaluation of the Capacity of FGF-R Antagonists to Reduce the ATP Content of TCC97-7 Bladder Cancer Cells Carrying the Ser249Cys Mutation of FGF-R3, Cultured in a Serum-Supplemented Medium
To do this, 3000 cells are seeded in 50 μl of complete medium (Ham-F/12, 1% FCS, 2 mM glutamine, non-essential amino acids, sodium pyruvate, 1% insulin/transferrin/selenium, hydrocortisone). 16 hours later, 50 μl of the various compounds are added at 2 and 20 μM after dilution in complete culture medium in order to obtain final concentrations of 1 and 10 μM. After 3 days, the ATP content of the cells is measured using the Cell Titer-Glo® Luminescent Cell Viability Assay kit (Promega, France) according to the supplier's recommendations. The percentage inhibition of the amount of intracellular ATP is calculated by considering the ATP content of the cells cultured in the absence of antagonist to be 0% inhibition. 100% inhibition would correspond to a well in which the ATP content is zero.
Thus, compounds 1 to 24 are capable of inhibiting the amount of intracellular ATP in TCC97-7 cells by more than 20% at the dose of 1 or 10 μM (Table No. 3).
(In general: Cellular ATP, detected with luciferase, serves as a proxy for viable cell number.)

Structures are written as SMILES.

As a reminder, the inhibition is the relative decrease from the control value, in per cent. Broadly, the melting point is the temperature of the solid-liquid transition. For `CN(C)c1cccc(-c2cc(C(F)(F)F)c3c(-c4ccccc4)nn(C)c3n2)c1` [compound 3, Dimethyl-[3-(1-methyl-3-phenyl-4-trifluoromethyl-1H-pyrazolo[3,4-b]pyridin-6-yl)phenyl]amine], the melting point amounted to 95 °C. In series [1], the inhibition at 1 µM is -32.3% and the inhibition at 10 µM came out at 40%. Moreover, in series [2], the inhibition at 1 µM came out at 21.3% and the inhibition at 10 µM stood at 47.7%.
The matching figures for `COc1ncc(-c2cc(C(F)(F)F)c3c(-c4ccccc4)nn(C)c3n2)cc1C#N` [compound 9, 2-Methoxy-5-(1-methyl-3-phenyl-4-trifluoromethyl-1H-pyrazolo[3,4-b]pyridin-6-yl)nicotinonitrile]: 250 °C, 27.6%, 79.7%, 12.3% and 69.3%.
Molecule `N#Cc1cc(-c2cc(C(F)F)c3c(-c4cccnc4)n[nH]c3n2)ccc1N` [compound 11, 2-Amino-5-(4-difluoromethyl-3-pyridin-3-yl-1H-pyrazolo[3,4-b]pyridin-6-yl)benzonitrile] yielded a melting point of 296 °C. For the same molecule, in series [1], the inhibition at 1 µM came to 50.4% and the inhibition at 10 µM was 19.2%. Moreover, in series [2], the inhibition at 1 µM was found to be 21.5% and the inhibition at 10 µM amounted to 25.5%.
Molecule `COc1cccc(-c2n[nH]c3nc(-c4ccc(N)c(C#N)c4)cc(C(F)F)c23)c1` [compound 12, 2-Amino-5-[4-difluoromethyl-3-(3-methoxyphenyl)-1H-pyrazolo[3,4-b]pyridin-6-yl]benzonitrile] displayed a melting point of 233 °C. In series [1], the inhibition at 1 µM was determined as 12.1% and the inhibition at 10 µM turned out to be 95.8%. For the same molecule, in series [2], the inhibition at 1 µM came out at 23.8% and the inhibition at 10 µM was determined as 75.8%.
The molecule `O=c1[nH]c2ccc(-c3cc(C(F)(F)F)c4c(-c5ccccc5)n[nH]c4n3)cc2[nH]1` [compound 15, 5-(3-Phenyl-4-trifluoromethyl-1H-pyrazolo[3,4-b]pyridin-6-yl)-1,3-dihydrobenzoimidazol-2-one] gave a melting point of 380 °C. In series [1], the inhibition at 1 µM was -3% and the inhibition at 10 µM amounted to 29%. In series [2], the inhibition at 1 µM was -11% and the inhibition at 10 µM is 19%.

The values are drawn from patent publication US9572799B2, “Pyrazolopyridine derivatives for use in the treatment of bladder cancer” (SANOFI, priority 2013, dated 2017).
